Results taken from patent publication US5053399A, “Myo-inositol analogs and methods for their use” (University of Pittsburgh, priority 1990, dated 1991).

Columns and labels:
PC12 cells [1] = assay: Cell growth inhibition in PC12 cells (cell counts; dose response and time course); assay type: cell-based, rat; conditions: dose response
Method: The biological effects of the 3-fluoro and 1-fluoro myo-inositol analogs were tested in PC12 cells, a cell line derived from a rat pheochromocytoma, which has been widely used to study the effects of various growth factors and differentiation promoters as further described by Green, L. A., et al., Adv. Cell Neurobiol., 3, 373-414, (1982), the disclosure of which is incorporated herein by reference.
PC12 cells were seeded at a density of 3.3×10^5 cells/cm^2 in plastic culture dishes and grown at 37° C. in a humidified atmosphere of 95% air/5% CO2. The basal medium used in these experiments was RPMI-1640 medium (Gibco). In some experiments a specially formulated inositol-free RPMI-1640 medium (Gibco) was used. This basal medium was supplemented with either normal or extensively dialyzed horse serum (10%) and fetal calf serum (5%) (Gibco). […]
A dose-response study was performed by growing cells in the presence of certain concentrations of the 3-fluoro and the 1-fluoro-myo-inositol analogs. At the end of five days, the cells were counted by the means described hereinabove.
The time course effect on cell replication was then examined, using the concentration of 1-fluoro and 3-fluoro myo-inositol analogs determined to have maximal effects in the dose response study of Table 1. […]

PC12 cells [2] = assay: Effects of fluoroinositol treatment on cell size (protein per cell, Lowry); assay type: cell-based, rat
Excerpt: As cells grow in culture, the size of an individual cell varies in a fairly predictable way. The size of a cell can be expressed as the amount of protein present per cell. […] Immediately after mitosis, the cell size drops considerably, frequently to levels approximately half of the pre-mitotic level.
By investigating the size of a cell, it is possible to determine at which point within the cell cycle inhibitors of cell replication are exerting their effects. Accordingly, we investigated the effect of the 1- and 3-fluoro-myo-inositol analogs on the size of cells chronically treated with such analogs.
Cells were grown and treated with 1- and 3-fluoro-myo-inositol analogs as described in Example XIII. On the days indicated, cells were gently harvested without disruption, and the number of cells counted in triplicate in a cell counting chamber. Following determination of the number of cells per sample, the remainder of the cells were pelleted in a microcentrifuge as described hereinabove, and the protein in the sample was determined by the method of Lowry. Thus, it was possible to derive from these two data sets the amount of protein per cell, which is expressed as nanograms of protein per cell, as indicated in Table 3: […]

myo-inositol transporter = target: T1, myo-inositol transporter (Rattus norvegicus, UniProt Q80WA5); assay: [3H]myo-inositol uptake by the myo-inositol transporter in PC12 cells; assay type: cell-based; conditions: for Maximal Transport Rate Vmax: in presence of fixed 1 mM analog
T1 construct: PC12 cells were gently detached and maintained in a suspension culture; endogenous in cells; host or cells: PC12
T1 sequence (Q80WA5 1-718): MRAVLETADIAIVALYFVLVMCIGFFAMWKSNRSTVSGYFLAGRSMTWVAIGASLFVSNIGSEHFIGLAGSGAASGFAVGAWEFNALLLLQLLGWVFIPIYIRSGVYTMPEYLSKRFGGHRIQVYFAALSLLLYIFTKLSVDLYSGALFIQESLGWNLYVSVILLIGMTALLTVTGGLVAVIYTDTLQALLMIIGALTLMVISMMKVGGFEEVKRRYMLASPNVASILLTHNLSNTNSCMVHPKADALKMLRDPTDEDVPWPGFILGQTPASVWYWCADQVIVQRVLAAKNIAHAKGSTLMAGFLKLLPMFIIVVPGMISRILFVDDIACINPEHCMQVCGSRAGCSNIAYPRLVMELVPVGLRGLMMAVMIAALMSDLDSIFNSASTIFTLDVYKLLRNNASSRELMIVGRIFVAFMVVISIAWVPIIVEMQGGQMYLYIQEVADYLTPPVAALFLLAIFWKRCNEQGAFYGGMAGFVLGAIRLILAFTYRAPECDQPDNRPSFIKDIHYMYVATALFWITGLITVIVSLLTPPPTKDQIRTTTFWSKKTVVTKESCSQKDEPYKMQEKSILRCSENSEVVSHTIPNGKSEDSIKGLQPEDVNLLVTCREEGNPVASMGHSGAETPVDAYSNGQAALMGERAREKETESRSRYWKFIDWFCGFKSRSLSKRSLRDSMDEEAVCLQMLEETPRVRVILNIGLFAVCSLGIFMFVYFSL
Method: To determine if the effect of the fluoro-myo-inositol analogs might be mediated by the blockade of the myo-inositol transporter, which is responsible for uptake and accumulation of myo-inositol into the cell, the ability of these two compounds to block [^3 H]myo-inositol transport was studied directly.
The uptake of [^3 H]myo-inositol by the myo-inositol transporter was determined as follows: PC12 cells were gently detached and maintained in a suspension culture in RPMI medium (both myo-inositol and serum free) at 37° C. [^3 H]myo-inositol was added to this culture at a concentration of 1μCi/ml. Aliquots of this suspension were removed at the indicated time, diluted in 10 volumes of ice-cold PBS containing 10 mM unlabelled myo-inositol to stop the uptake process, centrifuged at 4° C. for 20 minutes at 50xg. The cell pellet, which contained the transported [^3 H]myo-inositol, was dissolved in dilute NaOH and the radioactivity quantified by liquid scintillation counting.
The […] and Vmax of myoinositol were determined from LineweaverBurke plots
of the uptake of [^3 H]myoinositol (25 nM) in the presence of
increasing concentrations of unlabeled myoinositol in PC12 cells. The Ki
of the two fluoromyo-inositol analogs was determined by conducting the
uptake studies in the presence of a fixed concentration (1 mM) of each

PC12 cells [3] = assay: Uptake and incorporation of [3H]myo-inositol into PC12 cells following treatment with inositol analogs; assay type: cell-based, rat
Method: Since myo-inositol must be incorporated into the cellular plasma membranes in order for it to serve its role as a second messenger, we therefore verified the ability of the 1- and 3-fluoro-myo-inositol analogs to perturb the incorporation of myo-inositol into cellular plasma membranes by the enzyme CDP-diacylglycerol-inositol phosphatidyltransferase (phosphatidylinositol synthetase).
These tests were conducted by treating cells for either 1, 3, 5, or 7 days with the myo-inositol analogs, followed by a brief exposure to radiolabeled myo-inositol ([^3 H]myo-inositol). The extent of incorporation of tritiated myo-inositol would, therefore, reflect the extent to which phosphatidylinositol and its phosphorylated analogs are deficient in the cellular plasma membranes.
Cells were grown as described hereinabove. Twenty-four hours after plating, the medium was changed and cells were exposed to either inositol free medium (Control 2) or medium containing either the 1- or the 3-fluoro-myo-inositol analog. […] Samples from both the pellet and supernatant were then obtained and the levels of radioactivity in each were determined. Radioactivity in the supernatant corresponded to the amount of free [^3 H]myo-inositol in the cytoplasm of the cell, whereas the radioactivity present in the TCA-precipated pellet represented [^3 H]myo-inositol incorporated into the cellular plasma membranes. […]

## O[C@@H]1[C@@H](O)[C@@H](O)[C@@H](F)[C@H](O)[C@H]1O [1-deoxy-1-fluoroinositol, 1-deoxy-1-fluoro-myo-inositol]
PC12 cells [1]
  potency in inhibiting cell replication relative to the 3-fluoro-myo-inositol analog: about five-fold more potent
PC12 cells [1]; listed as I-fluoro-myo-inositol analog
  potency in inhibiting cell replication relative to the 3-fluoro-myo-inositol analog: 5 fold
PC12 cells [2]
  plateau of protein per cell relative to protein levels on day one: approximately twice
myo-inositol transporter
  Maximal Transport Rate Vmax: 2.27 nmol/mg/h
PC12 cells [3]; after several days of exposure
  increase in the number of unoccupied sites for myo-inositol in the cellular plasma membranes: 10 fold

## O[C@@H]1[C@@H](O)[C@H](O)[C@@H](F)[C@@H](O)[C@H]1O [3-deoxy-3-fluoroinositol, 3-deoxy-3-fluoro-myo-inositol]
myo-inositol transporter
  Maximal Transport Rate Vmax: 2.27 nmol/mg/h
PC12 cells [3]; PC12 cells, result in words
  level of radioactively-labeled myo-inositol incorporated into the cellular plasma membranes: quite low

## O[C@H]1[C@H](O)[C@@H](O)[C@H](O)[C@@H](O)[C@H]1O [Myo-inositol, myo-inositol]
myo-inositol transporter; Lineweaver-Burke plots, [3H]myo-inositol 25 nM with increasing unlabeled myo-inositol
  Affinity Constant K (Ka): 45 µM
